Here are results for three compounds from patent US8987449B2, “Medicine for treating ischemic brain injury and its sequelae, and preparation method thereof” (Haimin Lei, priority 2011, dated 2015).

Holding throughout (type): in vivo, rat
Assay [1] has as its system MCAO rats. Put plainly: Tactile stimulus experiment (time of MCAO rats removing the tape). The note with it: for time of removing the tape, Evaluation (3 d): model group 244.29 ± 95.46; for time of removing the tape, Evaluation (7 d): model group 221.53 ± 105.33. The source says:
140 healthy SD male rats, weighing 280-300 g, provided by Beijing Vital River Laboratories, certificate No.: SCXK (Jing) 2002-2003. The method of [Koizumi J, Yoshida […]. Experimental studies of ischemia brain edema, I: A new experimental model of cerebral embolism in rats in which recirculation can be introduced in the ischemic area[J]. […] After the rats were anesthetized and the skin thereof was disinfected by ethanol. By cutting right in the middle of the neck, the right common carotid artery, internal carotid artery and external carotid artery were separated and the common carotid artery and external carotid artery were ligated. The internal carotid artery was clamped with a bulldog clamp. A cut was made at the crotch of the external carotid artery and the internal carotid artery followed by releasing the bulldog clamp. […] Next, the external carotid artery was ligated and the nylon wire was fixed. In sham operation group, the right common carotid artery, the external carotid artery and the internal carotid artery were only exposed and separated. The rats were routinely raised in different cages. 0.5 ml penicillin was continuously injected into every mouse for three days after the surgery. […] The rats getting 1-3 point were selected for the subsequent experiment. The MCAO rats having the same point were distributed randomly and averagely to each experimental group. […] Evaluated was the executive function change of side forelimb sense and fine motor movement after the cerebral ischemia. […] The third and the seventh days after the administration were set as the observation time to carry out the test. The SPSS 11.0 software pack was used to carry out the statistical analysis of all the data. The comparison of the enumeration data was carried out with X^2 test P<0.05 had statistical meaning.

The subject of assay [2] is MCAO rats. Put plainly: Beam walking test of MCAO rats. Conditions: 0-6 points; for beam walking Evaluation (3 d): model group 1.47 ± 0.84; for beam walking Evaluation (7 d): model group 1.92 ± 2.02. The source says:
140 healthy SD male rats, weighing 280-300 g, provided by Beijing Vital River Laboratories, certificate No.: SCXK (Jing) 2002-2003. The method of [Koizumi J, Yoshida […]. Experimental studies of ischemia brain edema, I: A new experimental model of cerebral embolism in rats in which recirculation can be introduced in the ischemic area[J]. […] After the rats were anesthetized and the skin thereof was disinfected by ethanol. By cutting right in the middle of the neck, the right common carotid artery, internal carotid artery and external carotid artery were separated and the common carotid artery and external carotid artery were ligated. The internal carotid artery was clamped with a bulldog clamp. A cut was made at the crotch of the external carotid artery and the internal carotid artery followed by releasing the bulldog clamp. […] Next, the external carotid artery was ligated and the nylon wire was fixed. In sham operation group, the right common carotid artery, the external carotid artery and the internal carotid artery were only exposed and separated. The rats were routinely raised in different cages. 0.5 ml penicillin was continuously injected into every mouse for three days after the surgery. […] The rats getting 1-3 point were selected for the subsequent experiment. The MCAO rats having the same point were distributed randomly and averagely to each experimental group. […] Beam walking test was used to evaluate the motor coordination and the integration defect after the cerebral ischemia damage. […] There was a dark box attached to one end of the beam and the rats were stimulated by noise to walk through the beam into the dark box. […] The rats were trained before the ischemia for 5 days until all the rats can get 6 point. The third and the seventh days after administration was set as the observation time to carry out the test. The SPSS 11.0 software pack was used to carry out the statistical analysis of all the data. The comparison of the enumeration data was carried out with X^2 test P<0.05 had statistical meaning.

The next assay deals with SOD. Put plainly: SOD of MCAO rats (brain homogenate, kit). Conditions: model group 40.28 ± 7.51. The protocol:
(§1) 10% chloral hydrate 0.35 g/kg was injected into the abdominal cavity of a rat to anesthetize thereof. The rat was fixed as supine position. The skin was disinfected thereof by 75% medical alcohol. It was cut right in the middle of the neck. The right common carotid artery, internal carotid artery and external carotid artery were separated and the common carotid artery and external carotid artery were ligated. The internal carotid artery was clamped with a bulldog clamp. A cut was made at the crotch of the external carotid artery and the internal carotid artery followed by releasing the bulldog clamp. The nylon wire (diameter 0.25 mm, marked at a distance of 18 mm from the head end) was inserted into the cut and the insertion was stopped when some resistance was felt. The insert depth was a little longer than 18 mm to achieve the cerebral ischemia caused by middle cerebral artery occlusion. The internal carotid artery was ligated and the nylon wire was fixed. The muscle and skin were sutured layer by layer. In sham operation group, the right common carotid artery, the external carotid artery and the internal carotid artery were only exposed and separated. The rats were conventionally raised in different cages regularly. 0.5 ml penicillin was continuously injected into every rat for three days after the surgery.
(§2) The rats were divided into 7 groups in the experiment, that is, sham operation group, model group, Nimodipine group, LQC-T4 large dosage group, LQC-T4 small dosage group, TMP group, and TMP+Vanillic acid group. The model rats getting 1 point were distributed randomly into the model group and other administration group, while the rats getting 2 point and 3 point were distributed randomly into above 6 groups according the above method and sham operation group was not involved in the above grouping. 0.5% CMC-NA (1 ml·100 g^−1) was administrated intragastrically to the blank control group and the model group, two dosage group of 120 mg·kg^−1, 60 mg·kg^−1 were administrated intragastrically to the LQC-T4 (1 ml·100 g^−1) group, and 74 mg·kg^−1 TMP+46 mg·kg^−1 vanillitc acid (1 ml·100 g^−1) were administrated intragastrically, once per day continuously for 10 days.
(§3) 10% chloral hydrate 0.35 g/kg was injected into the abdominal cavity to anesthetize them after the rats were administrated for 10 days. The head was cut and the brain was taken. The cranial bones were stripped, the meninges were peeled off to separate the ischemia side of the brain, the blood streak was striped and then the brain was weighed. 4 times amount of 0.9 physiological saline was added and the brain was homogenized in 0° C. ice bath. […]
(§4) It was detected with 722 type visible spectrophotometer according to the kit operation. […]

For the next assay, the system named is MDA. Put plainly: MDA of MCAO rats (brain homogenate, kit). Conditions: model group 14.53 ± 3.29. The procedure: as §1, §2, §3, §4
Setting [3] is: 60 mg/kg intragastrically once a day.
Setting [4] is: 120 mg/kg intragastrically once a day.
Setting [5] is: 60 mg/kg intragastrically once per day for 10 days.
Setting [6] is: 120 mg/kg intragastrically once per day for 10 days.
The mark [7] stands for this setting: 37 mg/kg once per day for 10 days.
The mark [8] stands for this setting: 30 mg/kg once per day for 10 days.

For `COc1cc(C(=O)OCc2nc(C)c(C)nc2C)ccc1OCc1nc(C)c(C)nc1C` [LQC-T4, (3,5,6-trimethylpyrazine-2-yl)methyl 3-methoxy-4-((3,5,6-trimethylpyrazine-2-yl)methoxy) benzoate], the results for the “time of removing the tape, Evaluation (3 d)” value (shortened to “time … (3 d)”) with MCAO rats [1] (setting [3]) and in the assay on MCAO rats [1] (setting [4]) were 181.31 ± 133.40 s and 222.64 ± 104.45 s, respectively. Besides, the “time of removing the tape, Evaluation (7 d)” value (“time … (7 d)” below) worked out at 175.80 ± 139.06 s in the assay with MCAO rats [1] (setting [3]) and 245.95 ± 98.23 s in the assay on MCAO rats [1] (setting [4]). The results for the “beam walking Evaluation (3 d)” value in the assay with MCAO rats [2] (setting [3]) and in the assay with MCAO rats [2] (setting [4]) were 3.6 ± 1.76 and 2.88 ± 1.62, respectively. Further, the “beam walking Evaluation (7 d)” value stood at 3.83 ± 1.70 in the assay with MCAO rats [2] (setting [3]) and 3.20 ± 1.66 in the assay with MCAO rats [2] (setting [4]). Further, the results for the SOD in the assay on SOD (setting [5]) and in the assay with SOD (setting [6]) were 75.29 ± 30.08 and 85.03 ± 56.03, respectively. Further, the values for the MDA in the assay on MDA (setting [5]) and in the assay on MDA (setting [6]) were 14.32 ± 6.31 and 11.08 ± 4.53, respectively.
On to `Cc1nc(C)c(C)nc1C` [TMP, tetramethylpyrazine, reference compound], for which, in the assay on MCAO rats [1] (37 mg/kg once a day), the “time … (3 d)” value came out at 200.43 ± 117.81 s and the “time … (7 d)” value is reported as 211.35 ± 111.15 s. Moreover, in the assay on MCAO rats [2] (37 mg/kg once a day), the “beam walking Evaluation (3 d)” value was 2.86 ± 1.79 and the “beam walking Evaluation (7 d)” value worked out at 2.40 ± 2.32. In the assay with SOD (setting [7]), this compound gave an SOD of 61.58 ± 16.23. Besides, the MDA with MDA (setting [7]) is reported as 13.27 ± 3.96.
Regarding `COCCOC(=O)C1=C(C)NC(C)=C(C(=O)OC(C)C)C1c1cccc([N+](=O)[O-])c1` (stereo not drawn) [Nimodipine, reference compound], in the assay with MCAO rats [1] (30 mg/kg once a day), the “time … (3 d)” value is 211.13 ± 116.65 s and the “time … (7 d)” value worked out at 183.93 ± 124.50 s. For the same compound, in the assay with MCAO rats [2] (30 mg/kg once a day), the “beam walking Evaluation (3 d)” value is 2.71 ± 1.49 and the “beam walking Evaluation (7 d)” value is reported as 3.50 ± 1.71. The compound also registered an SOD in the assay with SOD (setting [8]) of 79.85 ± 36.57. In the assay on MDA (setting [8]), this compound had an MDA of 13.70 ± 6.56.
